From ChEMBL document CHEMBL3621157, “Design, synthesis and biological evaluation of novel 1,2,4-triazolo and 1,2,4-triazino[4,3-a]quinoxalines as potential anticancer and antimicrobial agents” (2015)
≈ marks a conversion by molar mass, not a printed value.

Legend:
Format in all cases: functional
Staphylococcus aureus [1] = test: Antimicrobial activity against Staphylococcus aureus DSM 1104 incubated at 37 degC for 24 hrs by cup diffusion method
Bacillus subtilis [2] = test: Antimicrobial activity against Bacillus subtilis ATCC 6633 incubated at 37 degC for 24 hrs by cup diffusion method
Pseudomonas aeruginosa [3] = test: Antimicrobial activity against Pseudomonas aeruginosa ATCC 10145 incubated at 37 degC for 24 hrs by cup diffusion method
Escherichia coli [4] = test: Antimicrobial activity against Escherichia coli ATCC 11775 incubated at 37 degC for 24 hrs by cup diffusion method
Candida albicans [5] = test: Antimicrobial activity against Candida albicans DSM 70014 incubated at 37 degC for 48 hrs by cup diffusion method
Staphylococcus aureus [6] = test: Antimicrobial activity against Staphylococcus aureus DSM 1104 incubated for 24 hrs by two-fold serial broth dilution method; conditions: DSM 1104, 24 h
Staphylococcus aureus [7] = test: Antimicrobial activity against Staphylococcus aureus DSM 1104 incubated for 24 hrs followed by transfer of colonies to Muller-Hinton agar plate and measured after 18 hrs by two-fold serial broth dilution method
Bacillus subtilis [8] = test: Antimicrobial activity against Bacillus subtilis ATCC 6633 incubated for 24 hrs by two-fold serial broth dilution method; conditions: ATCC 6633, 24 h
Bacillus subtilis [9] = test: Antimicrobial activity against Bacillus subtilis ATCC 6633 incubated for 24 hrs followed by transfer of colonies to Muller-Hinton agar plate and measured after 18 hrs by two-fold serial broth dilution method
Pseudomonas aeruginosa [10] = test: Antimicrobial activity against Pseudomonas aeruginosa ATCC 10145 incubated for 24 hrs by two-fold serial broth dilution method; conditions: ATCC 10145, 24 h
Pseudomonas aeruginosa [11] = test: Antimicrobial activity against Pseudomonas aeruginosa ATCC 10145 incubated for 24 hrs followed by transfer of colonies to Muller-Hinton agar plate and measured after 18 hrs by two-fold serial broth dilution method
Escherichia coli [12] = test: Antimicrobial activity against Escherichia coli ATCC 11775 incubated for 24 hrs by two-fold serial broth dilution method; conditions: ATCC 11775, 24 h
Escherichia coli [13] = test: Antimicrobial activity against Escherichia coli ATCC 11775 incubated for 24 hrs followed by transfer of colonies to Muller-Hinton agar plate and measured after 18 hrs by two-fold serial broth dilution method
Candida albicans [14] = test: Antimicrobial activity against Candida albicans DSM 70014 incubated for 48 hrs by two-fold serial broth dilution method; conditions: DSM 70014, 48 h
Candida albicans [15] = test: Antimicrobial activity against Candida albicans DSM 70014 incubated for 48 hrs followed by transfer of colonies to Muller-Hinton agar plate and measured after 18 hrs by two-fold serial broth dilution method
[16] = Growth inhibition of human HOP92 cells at 10 uM incubated for 48 hrs by sulforhodamine B assay; conditions: HOP-92, 48 h, read-out: GI
SNB-75 = test: Growth inhibition of human SNB75 cells at 10 uM incubated for 48 hrs by sulforhodamine B assay; conditions: SNB-75, 48 h, read-out: GI
UO-31 = test: Growth inhibition of human UO31 cells at 10 uM incubated for 48 hrs by sulforhodamine B assay; conditions: UO-31, 48 h, read-out: GI
A498 = test: Growth inhibition of human A498 cells at 10 uM incubated for 48 hrs by sulforhodamine B assay; conditions: A498, 48 h, read-out: GI

MIC (Staphylococcus aureus [6]) [µg/mL] | MIC (Bacillus subtilis [8]) [µg/mL] | MIC (Pseudomonas aeruginosa [10]) [µg/mL] | MIC (Escherichia coli [12]) [µg/mL] | MIC (Candida albicans [14]) [µg/mL] | Structure (SMILES) | inhibition zone (IZ) (Staphylococcus aureus [1]) [mm] | inhibition zone (IZ) (Bacillus subtilis [2]) [mm] | inhibition zone (IZ) (Pseudomonas aeruginosa [3]) [mm] | inhibition zone (IZ) (Escherichia coli [4]) [mm] | inhibition zone (IZ) (Candida albicans [5]) [mm] | MBC (Staphylococcus aureus [7]) [µg/mL] | MBC (Bacillus subtilis [9]) [µg/mL] | MBC (Pseudomonas aeruginosa [11]) [µg/mL] | MBC (Escherichia coli [13]) [µg/mL] | MFC (Candida albicans [15]) [µg/mL] | inhibition of growth at 10 µM [16] [%] | inhibition of growth at 10 µM (SNB-75) [%] | inhibition of growth at 10 µM (UO-31) [%] | inhibition of growth at 10 µM (A498) [%]
25 (≈ 75.2 µM) | 12.5 (≈ 37.6 µM) | 25 (≈ 75.2 µM) | 12.5 (≈ 37.6 µM) | 50 (≈ 150 µM) | O=C(O)CCc1nnc2c(Cc3ccccc3)nc3ccccc3n12 | 13 | 12 | 12 | 15 | 16 | 50 (≈ 150 µM) | 25 (≈ 75.2 µM) | 25 (≈ 75.2 µM) | 25 (≈ 75.2 µM) | 100 (≈ 301 µM) | 18.9 | 17.7 | 12.2 | –
50 (≈ 131 µM) | 100 (≈ 262 µM) | 50 (≈ 131 µM) | 100 (≈ 262 µM) | 25 (≈ 65.5 µM) | O=[N+]([O-])c1ccc(-c2nnc3c(Cc4ccccc4)nc4ccccc4n23)cc1 | 14 | 12 | 12 | 14 | 15 | 100 (≈ 262 µM) | 100 (≈ 262 µM) | 50 (≈ 131 µM) | 100 (≈ 262 µM) | 50 (≈ 131 µM) | – | – | – | –
100 (≈ 362 µM) | 100 (≈ 362 µM) | 100 (≈ 362 µM) | 100 (≈ 362 µM) | 50 (≈ 181 µM) | O=c1[nH]nc2c(Cc3ccccc3)nc3ccccc3n12 | 16 | 16 | 12 | 10 | 14 | 200 (≈ 724 µM) | 200 (≈ 724 µM) | 100 (≈ 362 µM) | 100 (≈ 362 µM) | 100 (≈ 362 µM) | – | – | 35.5 | 28.6
50 (≈ 150 µM) | 50 (≈ 150 µM) | 100 (≈ 301 µM) | 50 (≈ 150 µM) | 25 (≈ 75.2 µM) | CCOC(=O)c1nnc2c(Cc3ccccc3)nc3ccccc3n12 | 14 | 13 | 10 | 12 | 15 | 50 (≈ 150 µM) | 100 (≈ 301 µM) | 100 (≈ 301 µM) | 50 (≈ 150 µM) | 50 (≈ 150 µM) | – | 10.3 | 15.1 | –
100 (≈ 276 µM) | 50 (≈ 138 µM) | 100 (≈ 276 µM) | 50 (≈ 138 µM) | 50 (≈ 138 µM) | CCOC(=O)C/C(C)=N\Nc1nc2ccccc2nc1Cc1ccccc1 | 15 | 12 | 12 | 14 | 14 | 100 (≈ 276 µM) | 50 (≈ 138 µM) | 100 (≈ 276 µM) | 100 (≈ 276 µM) | 100 (≈ 276 µM) | – | – | 15.8 | 17.8

Structure (SMILES) | MIC (Staphylococcus aureus [6]) [µg/mL] | MIC (Bacillus subtilis [8]) [µg/mL] | MIC (Pseudomonas aeruginosa [10]) [µg/mL] | MIC (Escherichia coli [12]) [µg/mL] | MIC (Candida albicans [14]) [µg/mL] | inhibition zone (IZ) (Staphylococcus aureus [1]) [mm] | inhibition zone (IZ) (Bacillus subtilis [2]) [mm] | inhibition zone (IZ) (Pseudomonas aeruginosa [3]) [mm] | inhibition zone (IZ) (Escherichia coli [4]) [mm] | inhibition zone (IZ) (Candida albicans [5]) [mm] | MBC (Staphylococcus aureus [7]) [µg/mL] | MBC (Bacillus subtilis [9]) [µg/mL] | MBC (Pseudomonas aeruginosa [11]) [µg/mL] | MBC (Escherichia coli [13]) [µg/mL] | MFC (Candida albicans [15]) [µg/mL] | inhibition of growth at 10 µM [16] [%] | inhibition of growth at 10 µM (SNB-75) [%] | inhibition of growth at 10 µM (UO-31) [%] | inhibition of growth at 10 µM (A498) [%]
CC1(C)S[C@@H]2[C@H](NC(=O)[C@H](N)c3ccccc3)C(=O)N2[C@H]1C(=O)O [AMPICILLIN] | 5 (≈ 14.3 µM) | 12.5 (≈ 35.8 µM) | 50 (≈ 143 µM) | 10 (≈ 28.6 µM) | – | – | – | – | – | – | – | – | – | – | – | – | – | – | –
